molecular target: hA2A receptor (Homo sapiens (Human), UniProt P29274); test: binding affinity IC50 to hA2A receptor ([3H]-CGS 21680 filter binding, Effect Embodiment 2); details: A2A membrane, [3H]-CGS 21680 (final 25 nM), 90 minutes at 25° C.
Method: Evaluation experiment of the binding affinity IC50 of the compounds 1-61 to hA2A receptor
40 uL of ULTIMA GOLD scintillation fluid was added to each well and the CPM (count per minute) value was read by TopCount.

hA2A receptor, sequence (P29274 whole entry): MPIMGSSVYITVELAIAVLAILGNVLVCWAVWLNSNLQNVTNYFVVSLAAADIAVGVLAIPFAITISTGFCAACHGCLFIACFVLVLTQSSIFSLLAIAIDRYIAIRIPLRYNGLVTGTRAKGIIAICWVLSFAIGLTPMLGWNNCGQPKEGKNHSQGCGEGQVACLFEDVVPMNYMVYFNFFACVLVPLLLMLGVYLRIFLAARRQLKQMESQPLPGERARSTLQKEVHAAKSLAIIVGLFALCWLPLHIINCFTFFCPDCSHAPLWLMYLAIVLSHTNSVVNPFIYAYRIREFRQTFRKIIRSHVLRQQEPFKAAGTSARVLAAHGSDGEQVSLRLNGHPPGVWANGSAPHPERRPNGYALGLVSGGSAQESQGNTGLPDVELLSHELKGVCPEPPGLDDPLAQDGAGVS

IC50 [nM]	Compound
177	2-amino-6-(5-methylfuran-2-yl)-9-(2-(trifluoromethyl)phenyl)-8(9H)-carbonyl-7H-purine [Compound 60]
106	2-amino-9-((2-fluorophenyl)methyl)-6-(furan-2-yl)-7-methyl-8,9-dihydro-7H-purinyl-8-one [Compound 40]
39.3	Nc1nc(-c2ccco2)c2c(n1)C(Cc1ccc(Cl)cc1F)OC2=O (centres unmarked) [Compound 2, 2-amino-7-(4-chloro-2-fluorobenzyl)-4-(furan-2-yl)-5H,7H-furo[3,4-d]pyrimidin-5-one]
249	N#Cc1ccc(CC2OC(=O)c3c(-c4ccco4)nc(N)nc32)cc1 (centres unmarked) [Compound 4]
40	Nc1nc(-c2ccco2)c2c(n1)C(Cc1ccccc1)OC2=O (centres unmarked) [Compound 5, 2-amino-7-benzyl-4-(furan-2-yl)-5H,7H-furo[3,4-d]pyrimidin-5-one]
157	Nc1nc(-c2ccco2)c2c(n1)[C@@H](Cc1ccccc1)OC2 [Compound 6, (R)-7-benzyl-4-(furan-2-yl)-5,7-dihydrofuro[3,4-d]pyrimidin-2-amine]
10.7	Nc1nc(-c2ccco2)c2c(n1)C(Cc1ccc(F)cc1F)OC2=O (centres unmarked) [Compound 8, 2-amino-7-(2,4-difluorobenzyl)-4-(furan-2-yl)-5H,7H-furo[3,4-d]pyrimidin-5-one]
114	Nc1nc(-c2ccco2)c2c(n1)C(Cc1ccc(F)cc1Cl)OC2=O (centres unmarked) [Compound 10, 2-amino-7-(2-chloro-4-fluorobenzyl)-4-(furan-2-yl)-5H,7H-furo[3,4-d]pyrimidin-5-one]
32.1	Nc1nc(-c2ccco2)c2c(n1)C(Cc1ccccc1Cl)OC2=O (centres unmarked) [Compound 11, 2-amino-7-(2-chlorobenzyl)-4-(furan-2-yl)-5H,7H-furo[3,4-d]pyrimidin-5-one]
99.8	Nc1nc(-c2ccco2)c2c(n1)C(Cc1ccc(Cl)c(F)c1)OC2=O (centres unmarked) [Compound 12, 2-amino-7-(4-chloro-3-fluorobenzyl)-4-(furan-2-yl)-5H,7H-furo[3,4-d]pyrimidin-5-one]
152	CS(=O)(=O)c1ccc(CC2OC(=O)c3c(-c4ccco4)nc(N)nc32)cc1 (centres unmarked) [Compound 13, 2-amino-4-(furan-2-yl)-7-(4-methylsulfonylbenzyl)-5H,7H-furo[3,4-d]pyrimidin-5-one]
218	NC(=O)c1ccc(CC2OC(=O)c3c(-c4ccco4)nc(N)nc32)cc1 (centres unmarked) [Compound 14, 4-((2-amino-4-(furan-2-yl)-5-oxo-5H,7H-furo[3,4-d]pyrimidin-7-yl)methyl)benzamide]
274	Nc1nc(-c2ccco2)c2c(n1)C(Cc1ccc(C(F)(F)F)cc1)OC2=O (centres unmarked) [Compound 15]
15.7	Nc1nc(-c2ccco2)c2c(n1)C(Cc1ccccc1C(F)(F)F)OC2=O (centres unmarked) [Compound 16, 2-amino-4-(furan-2-yl)-7-((2-(trifluoromethyl)phenyl)methyl)-5H,7H-furo[3,4-d]pyrimidin-5-one]
29.2	Nc1nc(-c2ccco2)c2c(n1)C(Cc1c(F)cccc1Cl)OC2=O (centres unmarked) [Compound 17, 2-amino-7-((2-chloro-6-fluorophenyl)methyl)-4-(furan-2-yl)-5H,7H-furo[3,4-d]pyrimidin-5-one]
73.7	Nc1nc(-c2ccco2)c2c(n1)C(Cc1cccc(Cl)c1F)OC2=O (centres unmarked) [Compound 18, 2-amino-7-((3-chloro-2-fluorophenyl)methyl)-4-(furan-2-yl)-5H,7H-furo[3,4-d]pyrimidin-5-one]

IC50 [nM]	Compound
31.1	Cc1ccccc1CC1OC(=O)c2c(-c3ccco3)nc(N)nc21 (centres unmarked) [Compound 19, 2-amino-7-((2-methylphenyl)methyl)-4-(furan-2-yl)-5H,7H-furo[3,4-d]pyrimidin-5-one]
299	Nc1nc(-c2ccco2)c2c(n1)C(Cc1cc(C(F)(F)F)cc(C(F)(F)F)c1)OC2=O (centres unmarked) [Compound 20, 2-amino-7-((3,5-di(trifluoromethyl)phenyl)methyl)-4-(furan-2-yl)-5H,7H-furo[3,4-d]pyrimidin-5-one]
106	Nc1nc(-c2ccco2)c2c(n1)C(Cc1ccc(OC(F)(F)F)cc1)OC2=O (centres unmarked) [Compound 21, 2-amino-7-((4-(trifluoromethoxyl)phenyl)methyl)-4-(furan-2-yl)-5H,7H-furo[3,4-d]pyrimidin-5-one]
47.3	Nc1nc(-c2ccco2)c2c(n1)C(Cc1c(F)cccc1F)OC2=O (centres unmarked) [Compound 22, 2-amino-7-((2,6-difluorophenyl)methyl)-4-(furan-2-yl)-5H,7H-furo[3,4-d]pyrimidin-5-one]
3.9	Nc1nc(-c2ccco2)c2c(n1)C(Cc1ccccc1OC(F)(F)F)OC2=O (centres unmarked) [Compound 23, 2-amino-7-((2-(trifluoromethoxyl)phenyl)methyl)-4-(furan-2-yl)-5H,7H-furo[3,4-d]pyrimidin-5-one]
918	Nc1nc(-c2ccccn2)c2c(n1)C(Cc1ccccc1)OC2=O (centres unmarked) [Compound 24, 2-amino-7-benzyl-4-(pyridin-2-yl)-5H,7H-furo[3,4-d]pyrimidin-5-one]
32.1	Cc1ccc(-c2nc(N)nc3c2C(=O)OC3Cc2ccc(F)cc2F)o1 (centres unmarked) [Compound 26, 2-amino-7-((2,4-difluorophenyl)methyl)-4-(5-methylfuran-2-yl)-5H,7H-furo[3,4-d]pyrimidin-5-one]
21	Cc1ccc(-c2nc(N)nc3c2C(=O)OC3Cc2ccccc2F)o1 (centres unmarked) [Compound 27, 2-amino-7-((2-fluorophenyl)methyl)-4-(5-methylfuran-2-yl)-5H,7H-furo[3,4-d]pyrimidin-5-one]
11.2	Cc1ccc(-c2nc(N)nc3c2C(=O)OC3Cc2ccccc2C(F)(F)F)o1 (centres unmarked) [Compound 28, 2-amino-7-((2-(trifluoromethyl)phenyl)methyl)-4-(5-methylfuran-2-yl)-5H,7H-furo[3,4-d]pyrimidin-5-one]
252	Cc1ccc(-c2nc(N)nc3c2C(=O)OC3Cc2cc(F)ccc2F)o1 (centres unmarked) [Compound 29, 2-amino-7-((2,5-difluorophenyl)methyl)-4-(5-methylfuran-2-yl)-5H,7H-furo[3,4-d]pyrimidin-5-one]
94	Cc1ccc(-c2nc(N)nc3c2C(=O)OC3Cc2cc(Cl)ccc2F)o1 (centres unmarked) [Compound 30, 2-amino-7-((5-chloro-2-fluorophenyl)methyl)-4-(5-methylfuran-2-yl)-5H,7H-furo[3,4-d]pyrimidin-5-one]
38.4	Cc1ccc(-c2nc(N)nc3c2C(=O)OC3Cc2c(F)cccc2Cl)o1 (centres unmarked) [Compound 31, 2-amino-7-((6-chloro-2-fluorophenyl)methyl)-4-(5-methylfuran-2-yl)-5H,7H-furo[3,4-d]pyrimidin-5-one]
19.9	Cc1ccc(-c2nc(N)nc3c2C(=O)OC3Cc2ccc(F)cc2C(F)(F)F)o1 (centres unmarked) [Compound 32, 2-amino-7-((4-fluoro-2-(trifluoromethyl)phenyl)methyl)-4-(5-methylfuran-2-yl)-5H,7H-furo[3,4-d]pyrimidin-5-one]
275	Nc1nc(-c2ccco2)c2c(n1)[C@H](Cc1ccccc1)OC2 [Compound 33, (S)-7-benzyl-4-(furan-2-yl)-5,7-dihydrofuro[3,4-d]pyrimidin-2-amine]
30.1	Cn1c(=O)n(Cc2ccc(F)cc2F)c2nc(N)nc(-c3ccco3)c21 [Compound 35, 2-amino-9-((2,4-difluorophenyl)methyl)-6-(furan-2-yl)-7-methyl-8,9-dihydro-7H-purinyl-8-one]

Compound	IC50 [nM]
N#Cc1ccc(CC2OC(=O)c3c(-c4ccco4)nc(N)nc32)cc1F (centres unmarked) [Compound 3]	159

From patent US11066413B2, “Aminopyrimidine five-membered heterocyclic compound, and intermediate, preparation method, pharmaceutical composition and application thereof” (GUANGZHOU MAXINOVEL PHARMACEUTICALS CO., LTD., priority 2017, dated 2021)
